Assay results: patent US11453632B2, “1-phenyl-2-phenylethane derivative” (KAO CORPORATION, priority 2018, dated 2022)

Key:
ERα = target: T1, ERα (Homo sapiens, UniProt P03372); experiment: Ability to activate transcription mediated by ERα (pcDNA3-ERα, pERE luciferase, HEK293 cells); format: cell-based; details: negative control 0.004573
T1 construct: host or cells: HEK293
T1 sequence (P03372 1-595): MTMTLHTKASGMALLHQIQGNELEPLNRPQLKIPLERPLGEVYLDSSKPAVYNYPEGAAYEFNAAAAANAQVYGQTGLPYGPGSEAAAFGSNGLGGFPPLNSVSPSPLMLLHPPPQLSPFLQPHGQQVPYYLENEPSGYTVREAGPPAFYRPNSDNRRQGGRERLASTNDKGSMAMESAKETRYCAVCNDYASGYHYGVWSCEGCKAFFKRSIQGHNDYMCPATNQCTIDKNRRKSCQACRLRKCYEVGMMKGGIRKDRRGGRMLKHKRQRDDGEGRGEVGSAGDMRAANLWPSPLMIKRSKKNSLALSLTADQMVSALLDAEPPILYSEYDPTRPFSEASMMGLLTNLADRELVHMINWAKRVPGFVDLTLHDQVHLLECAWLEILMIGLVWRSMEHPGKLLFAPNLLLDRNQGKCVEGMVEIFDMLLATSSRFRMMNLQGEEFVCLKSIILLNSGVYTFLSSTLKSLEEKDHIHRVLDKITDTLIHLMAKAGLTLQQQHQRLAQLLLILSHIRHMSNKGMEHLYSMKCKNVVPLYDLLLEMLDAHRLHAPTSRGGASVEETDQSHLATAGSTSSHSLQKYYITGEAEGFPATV
Experimental: 1) Experimental Method (Measurement of Transcriptional Activity Mediated by ERs)
HEK293 cells were inoculated at a cell density of 4.0×10^4 cells/well to a 96-well plate. After 12 hours therefrom, the medium was replaced with a culture solution (DMEM containing 5% (v/v) charcoal-treated serum). The cells were cotransfected with pcDNA3-ERα or pcDNA3-ERβ (Promega Corp.) and pERE and pRL-CMV (Promega Corp.) using Lipofectamine 2000 (Invitrogen Corp.) according to the protocol attached to the product. 24 hours after transfection, the medium was replaced with a culture medium containing a test sample, followed by culture for another 24 hours. Then, luciferase activity was measured using Dual-Glo™ Luciferase Assay System (Promega Corp.) according to the attached protocol. The luminescence intensity of firefly luciferase (index for the ability to activate transcription mediated by ERE) was divided by the luminescence intensity of Renilla reniformis luciferase (index for the transfection efficiency of the plasmids) to calculate a relative light unit (RLU).

[1] = system: uterus of ovariectomized rat; experiment: Uterus weight in ovariectomized (OVX) rat; format: in vivo
Experimental: (§1) 8-week-old female Crl:CD (SD) rats were obtained from Charles River Laboratories Japan, Inc. and individually identified by the ear punching method on the receipt date. Then, an acclimatization period was established for 1 week. The animals were raised in a rearing room under a set environment involving a temperature of 22±3° C., a humidity of 50±20%, air ventilation from 13 to 17 times/hour, and a lighting time from 8:00 to 20:00. During the acclimatization period, the rats were allowed to freely ingest solid feed CRF-1 (Oriental Yeast Co., Ltd.). Since the feeding with CRF-1, the rats were allowed to freely ingest customized feed AIN-93G (Oriental Yeast Co., Ltd.) free from components derived from soybeans.
(§2) On the end date of acclimatization and the following day, the flank cavity was opened under isoflurane anesthesia to harvest the right and left ovaries including fallopian tubes. Other non-OVX rats were subjected to only opening and suture (sham surgery). Immediately thereafter, an antibiotic was subcutaneously administered at a dose of 100 μl/animal. After the surgery, the sham surgery or OVX animals were given customized feed and raised for approximately 1 week.
From 1.5 hours before a shift from the light phase to the dark phase (18:30), a negative solvent (DMSO) or a test substance was subcutaneously administered at a dose of 0.5 ml/kg to the back of the neck according to Table 3 described below using a syringe and an injection needle.
After the completion of all procedures of measurement and analysis, the rats were euthanized by blood letting under isoflurane anesthesia, and the uterus was harvested. Wet weights were measured.
(§3) Skin temperatures differed largely among individuals, and the Smirnov-Grubbs test was conducted in order to exclude outliers beforehand. Results of measuring tail skin temperatures and results of measuring uterus weights were statistically analyzed by testing using the Dunnett's test.

[2] = system: tail skin temperature of ovariectomized rat; experiment: Tail skin temperature in ovariectomized (OVX) rat; format: in vivo
Experimental: as §1
1-2) Sham Surgery and Oophorectomy Surgery (OVX)
as §2
1-3) Acclimatization to Skin Temperature Measurement Environment […]
Before administration of a test substance and from 12:00 to 3:00 (dark phase) of 3, 5, 7, 14, and 21 days after the start of administration, the rats were placed in restrainers without anesthesia, and skin temperatures were measured at a site 3 cm on the tip side from the tail root using the infrared radiation thermometer. […]
as §3

relative light unit (RLU), transcription activation ERα (ERα; 0.1 pM): 0.008213 | relative light unit (RLU), transcription activation ERα (ERα; 1 pM): 0.01023 | relative light unit (RLU), transcription activation ERα (ERα; 10 pM): 0.01835 | relative light unit (RLU), transcription activation ERα (ERα; 100 pM): 0.04125 | relative light unit (RLU), transcription activation ERα (ERα; 1000 pM): 0.06202 | relative light unit (RLU), transcription activation ERα (ERα; 10000 pM): 0.05401 | uterus wet weight (FIG. 6) ([1]; 4 μg/kg/day subcutaneous, vs negative solvent group): no change in uterus weight was confirmed
SMILES: Oc1ccc(CC(C=C(F)F)c2ccc(O)cc2F)c(F)c1 (centres unmarked) [Compound 17-F, 4,4′-(4,4-difluorobut-3-ene-1,2-diyl)bis(3-fluorophenol)]
uterus wet weight (FIG. 6) ([1]; increased dose of compound 17-F (40, 400 μg/kg/day) subcutaneous): elevated in a concentration-dependent manner | tail skin temperature, raw value and changed temperature from the initial value ([2]; 4, 40, and 400 μg/kg subcutaneous, 3 days after the start of administration, vs negative solvent): confirmed to decrease | tail skin temperature, drug efficacy ([2]; subcutaneous, 5 days after the start of administration): temporarily disappeared | tail skin temperature, raw value and changed temperature ([2]; subcutaneous, 7 days after the start of administration): confirmed to decrease again
